The target of one series is T1, human GLP-2 receptors (Homo sapiens, UniProt O95838, D470N).
T1 sequence (O95838 1-553 D470N): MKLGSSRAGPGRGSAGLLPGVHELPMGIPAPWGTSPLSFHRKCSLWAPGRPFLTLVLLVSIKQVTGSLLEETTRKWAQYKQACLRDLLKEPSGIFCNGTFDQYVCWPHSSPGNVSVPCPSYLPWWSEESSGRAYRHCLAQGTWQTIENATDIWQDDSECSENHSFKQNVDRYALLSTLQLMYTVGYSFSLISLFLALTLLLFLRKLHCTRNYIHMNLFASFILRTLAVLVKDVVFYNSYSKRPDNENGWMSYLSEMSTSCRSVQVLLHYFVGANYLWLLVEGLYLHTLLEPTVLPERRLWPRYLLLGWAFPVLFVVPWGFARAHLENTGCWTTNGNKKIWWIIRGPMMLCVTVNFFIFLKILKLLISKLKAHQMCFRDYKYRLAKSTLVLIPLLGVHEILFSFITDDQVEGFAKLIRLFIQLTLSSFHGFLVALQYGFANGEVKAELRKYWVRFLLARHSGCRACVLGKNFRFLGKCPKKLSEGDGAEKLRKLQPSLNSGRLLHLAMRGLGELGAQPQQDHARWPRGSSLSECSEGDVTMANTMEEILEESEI
Description: GLP-2 receptor efficacy assay (cAMP AlphaScreen). It counts as cell-based. An excerpt:
The hGLP2-R was purchased from MRC-geneservice, Babraham, Cambridge as an Image clone: 5363415 (11924-117). For subcloning into a mammalian expression vector, primers for subcloning were obtained from DNA-Technology, Risskov, Denmark. The 5' and 3' primers used for the PCR reaction include terminal restriction sites for cloning and the context of the 5' primer is modified to a Kozak consensus without changing the sequence of the product encoded by the ORF. A standard PCR reaction was run using Image clone 5363415 (11924-117) as a template with the above mentioned primers and Polymerase Herculase II Fusion in a total vol. of 50µl. The generated PCR product was purified using GFX PCR and Gel band purification kit, digested with restriction enzymes and cloned into the mammalian expression vector using Rapid DNA Ligation Kit. Ligation reaction was transformed to XL10 Gold Ultracompetent cells and colonies were picked for DNA production using Endofree Plasmid maxi kit. Subsequent sequence analysis was conducted by MWG Eurofins, Germany.
HEK293 cells were transfected using the Lipofectamine PLUS transfection method. The day before transfection, HEK293 cells were seeded in two T75 flasks at a density of 2 x 10^6 cells / T75 flask in cell culturing medium without antibiotics. On the day of transfection, cells were washed with 1x DPBS and medium was replaced with Optimem to a volume of 5 mL / T75 flask before addition of Lipofectamine-plasmid complexes were added gently and drop wise to the cells in T75 flasks and replaced with growth medium after 3 hours and again to growth medium supplemented with 500µg/mL G418 after 24 hours. After 4 weeks in G418 selection, clones were picked and tested in a functional assay.
The cAMP AlphaScreen® assay from Perkin Elmer was used to quantitate the cAMP response to activation of the GLP2 receptor. […] Table 2: GLP-2R EC50 measurements

Series [1] is described as follows: Phase 2 clinical trial, PK profile of ZP1848 and metabolites in SBS patients. It counts as in vivo, human. The conditions noted are these: for Conc.: plasma. As to the method:
A phase 2 clinical trial was conducted to i.a. determine the PK profile of ZP1848 and metabolites in human SBS patients.
The study was designed as a randomized, cross-over and double-blinded with three different doses of ZP1848 (10 mg, 1 mg, 0.1 mg) in 16 SBS patients.
The 18 SBS patients (16 patients completed the study) were randomized evenly and in a double-blinded fashion to each of the six cross-over dose level combinations: 10 mg/1 mg, 10 mg/0.1 mg, 1 mg/10 mg, 1 mg/0.1 mg, 0.1 mg/10 mg, 0.1 mg/1 mg of ZP1848. The patients were injected once daily (QD) subcutaneously with the above doses of ZP1848.
Blood samples for PK analysis were collected on several study visits throughout the study period: the study comprised a 1st baseline balance study (4 days), a 1st treatment period (21 days) including a 1st treatment balance study (last 4 days of 1st treatment period), followed by a wash-out period (at least 4 weeks); and a 2nd baseline balance study (4 days), a 2nd treatment period (21 days) including a 2nd treatment balance study (last 4 days of 2nd treatment period) and a follow-up period (at least 4 weeks).
PK sampling was performed at visit 11 (1st treatment, balance study) and visit 17 (second day of 2nd baseline study - after a wash out period), and again at visit 25 (2nd treatment balance study) and at visit 29 (last day of follow-up period).
At day visit 11 and visit 25 a full PK profile in steady state was investigated. PK samples were taken prior to injection of ZP1848, and at the following time points (+/- 10 minutes) after trial product administration: 1h, 2h, 4h, 6h, 8h, 10h, 12h and 24h. Each PK sample contained 2 mL of blood, resulting in a total of […] blood drawn for PK purposes. The plasma sample was immediately stored at -80°C after sampling.
Plasma samples were analyzed after immunoaffinity extraction followed by liquid chromatography mass spectrometry (LC-MS/MS). For each patient plasma concentrations were used for calculation of the pharmacokinetic parameters using the non-compartmental approach in Excel. Plasma terminal elimination half-life (T½) was determined as In(2)/ke where ke is the magnitude of the slope of the log linear regression of the log concentration versus time profile during the terminal phase.

Series [2] in a line: plasma of healthy subjects after SC injections (once daily or once weekly) or single IV infusion of glepaglutide. Particulars: human, up to 168 hours post dose.
Series [3] in a line: plasma samples from SBS patients injected once daily (QD) subcutaneously with ZP1848. Particulars: human, up to Day 56.
The next series deals with Wistar rats. Description: Intestinotrophic effects after 26 weeks of daily SC dosing in rats. Format: in vivo. As to the method:
Wistar rats were dosed subcutaneously (SC) with vehicle, 1, 3 and 10 mg/kg ZP1848 on a daily basis for 26 weeks. Further sub-groups of control and high-dose animals were allowed a 6-week recovery period following completion of the dosing period. […] The length and the weight of the small and large intestines were measured at necropsy as indicators of intestinotrophic effects and the intestinal tract was evaluated histologically.

A further series concerns Beagle Dogs. Briefly: 39-week subcutaneous administration to beagle dogs with 6-week recovery, intestine length and weight. Format: in vivo. Particulars: vs controls. Here is the method: ZP1848 (0.25, 1 or 5 mg/kg/day) was given for 39 weeks subcutaneously to beagle dogs (22 to 24 weeks). Vehicle was used as the control. Recovery from any effect was evaluated during a 6 week recovery period. The study was conducted in accordance with the applicable sections of the United Kingdom Animals (Scientific Procedures) Act 1986, Amendment Regulations 2012 (the Act).
After 39 weeks the dogs were sacrificed and all animals were subject to a detailed necropsy. The length of the small and large intestines were measured separately and recorded in centimeters. The entire length of the gastrointestinal tract (starting at the duodenum and ending at the rectum) was removed and trimmed of any excessive mesentery, connective or adipose tissue and the measurements for the small and large intestine recorded by laying the small intestine and large intestine on a clean surface and measured with a tape measure. The sections required for histopathology were left unopened and flushed through with water. The remainder were opened, cleaned with water, carefully blotted dry prior to weighing. On completion of length and weight measurements, the gastrointestinal tract was processed and fixed in 10% Neutral Buffered Formalin, as per standard necropsy practice for this species.

In a further series the test system is SBS patients. Briefly: Fecal wet weight output in SBS-IF/SBS-II patients (metabolic balance studies). Format: in vivo, human. The conditions noted are these: change from baseline. As to the method: The study was designed as a randomized, cross-over and double-blinded with three different doses of ZP1848 (10 mg, 1 mg, 0.1 mg) in 16 SBS patients. The study protocol was approved by the Danish Medical Agency and The Danish Committee on Health Research Ethics.
The 18 SBS patients were randomized evenly and in a double-blinded fashion to each of the six cross-over dose level combinations: 10 mg/1 mg, 10 mg/0.1 mg, 1 mg/10 mg, 1 mg/0.1 mg, 0.1 mg/10 mg, 0.1 mg/1 mg of ZP1848. The SBS patient group comprised 9 females, 9 males; hereof 13 SBS-IF patients and 5 SBS-II patients. Mean age was 62 years, mean short bowel length was 110 cm, and two SBS-IF patients had > 50% colon in continuity. The patients were injected once daily subcutaneously with the above doses of ZP1848.
The aim of this study was to evaluate efficacy of ZP1848 on fecal wet weight output in patients with SBS-II and SBS-IF and thus the absolute change from baseline in wet weight of fecal output as measured by metabolic balance studies prior to and on the […] of each treatment period.

For series [4] the following is noted: background statement; cited from earlier work.
Setting [5] is: females, 10 mg/kg SC daily, 26 weeks, main study animals.
The mark [6] stands for this setting: females, 10 mg/kg, recovery animals (6-week recovery).
Setting [7] is: males, 10 mg/kg SC daily, 26 weeks, main study animals.
The mark [8] stands for this setting: males, 10 mg/kg, recovery animals (6-week recovery).
Setting [9] is: females, 5 mg/kg/day SC, 39 weeks.
Where [10] appears, read: females, end of six-week recovery period.
Setting [11] is: males, 5 mg/kg/day SC, 39 weeks.
The mark [12] stands for this setting: males, end of six-week recovery period.

This is an account of results in patent publication EP4796171A2 (Zealand Pharma A/S, priority 2017, dated 2018).

“And” between values parts separate entries of the source, which are not always exact repeats. Equal values may be shown once. “Also recorded” adds a separate entry of the source. Read-outs that look alike come from different tables or passages of the source.

One may read the EC50 as the concentration at which the effect is half-maximal. Higher therefore signals a need for much substance. On human GLP-2 receptors, “H-HGEGSFSSELSTILDALAARDFIAWLIATKITDKKKKKK-NH2 [ZP1846]” returned a 50% effective concentration (EC50) of 0.26 nM.

“H-HGEGTFSSELATILDALAARDFIAWLIATKITDKK-OH [ZP2711]” registered an EC50 on human GLP-2 receptors of 0.072 nM. Besides, the in vitro potency entry at human GLP-2 receptors (in words, relative to ZP1848) is recorded as “comparable to ZP1848”. Besides, the plasma level result in series [1] (in words, relative to ZP1848 after administration of ZP1848) was “in the same range as that of ZP1848”. Moreover, the Conc. in series [1] (Day 0 (visit 11 or 25, treatment balance study), ZP1848 SC once daily, individual subjects) is 131 pM and 543 pM; in series [1] (Day 28-56 (visit 17 or 29, after wash-out/follow-up), individual subjects), 32.6 pM and 61.4 pM. Besides, the Half-life in series [1] (terminal, from Day 0 and wash-out/follow-up concentrations, individual subjects) is recorded as 10 days.

Substance “H-HGEGTFSSELATILDALAARDFIAWLIATKITDKKK-OH [ZP2949]” registered a 50% effective concentration (EC50) on human GLP-2 receptors of 0.11 nM.

As to “H-HGEGTFSSELATILDALAARDFIAWLIATKITDKKKKKK-NH2”, the fragment found result in series [2] is “ZP2469 (ZP18481-34), major; also recorded: ZP2711 (ZP18481-35), major”; in series [3], “ZP2469, major; also recorded: ZP2711, major”.

Regarding “H-HGEGTFSSELATILDALAARDFIAWLIATKITDKKKKKK-NH2 [ZP1848] [listing 1 of 2 here]”, the “SI length, percentage increase relative to control group” value was determined as 47% with Wistar rats (setting [5]), 45% in the series on Wistar rats (setting [6]), 38% in the series on Wistar rats (setting [7]) and 39% with Wistar rats (setting [8]). For the same substance, the “SI weight, percentage increase relative to control group” value in the series on Wistar rats (setting [5]) is 238%; with Wistar rats (setting [6]), 101%; in the series on Wistar rats (setting [7]), 190%; in the series on Wistar rats (setting [8]), 85%. Besides, in the series on Wistar rats (in words, 1, 3 and 10 mg/kg SC daily, 26 weeks), the “length and weight of the small intestines” value is listed as “dose-related significant (p<0.01) increases”. For the same substance, the “length and weight of the large intestine” value in the series with Wistar rats (in words, 26 weeks SC daily) was “slightly increased”. The “mucosal hyperplasia of the duodenum, jejunum and ileum” value in the series on Wistar rats (in words, histology, 26 weeks SC daily) is listed as “dose-related increase”. In addition, the “increase in small intestine length” value with Beagle Dogs (setting [9]) was 37%; in the series on Beagle Dogs (setting [10]) it was 19%; with Beagle Dogs (setting [11]) it was 46%; in the series with Beagle Dogs (setting [12]) it was 16%. Further, the “increase in small intestine weight” value in the series with Beagle Dogs (setting [9]) was determined as 80%; in the series with Beagle Dogs (setting [10]) it was 34%; with Beagle Dogs (setting [11]), 103%; with Beagle Dogs (setting [12]) it was 78%. Besides, the “Changes in Absolute Fecal Wet Weight Output (Means)” value in the series on SBS patients (IF (n=11), 0.1 mg SC once daily) is 196 g/day; in the series on SBS patients (IF (n=11), 1 mg + 10 mg pooled), -741 g/day; in the series on SBS patients (IF (n=11), 1 mg SC once daily) it was -587 g/day; in the series with SBS patients (IF (n=11), 10 mg SC once daily), -894 g/day; with SBS patients (II (n=5), 0.1 mg SC once daily), -37 g/day; in the series on SBS patients (II (n=5), 1 mg + 10 mg pooled) it was -570 g/day. The “Changes in Absolute Fecal Wet Weight Output (Means)” value with SBS patients (II (n=5), 1 mg SC once daily) is recorded as -303 g/day; in the series with SBS patients (II (n=5), 10 mg SC once daily) it was -837 g/day; in the series with SBS patients (II+IF (n=16), 0.1 mg SC once daily) it was 173 g/day; in the series with SBS patients (II+IF (n=16), 1 mg + 10 mg pooled) it was -713 g/day; with SBS patients (II+IF (n=16), 1 mg SC once daily), -592 g/day; in the series on SBS patients (II+IF (n=16), 10 mg SC once daily), -833 g/day.

The substance “H-HGEGTFSSELATILDALAARDFIAWLIATKITDKKKKKK-NH2 [ZP1848] [listing 2 of 2 here]” showed an EC50 at human GLP-2 receptors of 0.3 nM.

In the case of lixisenatide, the Half-life in series [4] is 2 to 4 h.
